Data as given in ChEMBL document CHEMBL5518182, “Discovery and development of BI 1265162, an ENaC inhibitor for the treatment of cystic fibrosis” (Eur J Med Chem, 2024).
Calls of active or inactive are those of the source. The rule behind the calls is not given here.

How the values were obtained:
[1] = biological target: CaV3.1 (Homo sapiens, UniProt O43497); assay: Inhibition of CaV3.1 (unknown origin) at 10 uM relative to control; assay type: toxicity
[2] = Oral bioavailability in Han Wistar rat; assay type: ADME, organism-based; conditions: in vivo
[3] = Clearance in Han Wistar rat assessed as liver blood flow at 0.5 umol/kg; assay type: ADME, tissue-based; conditions: in vivo, at 0.5 µmol/kg
[4] = Genotoxicity in Salmonella typhimurium TA1537 incubated for 48 hrs in presence of rat liver S9 fraction by Ames test; assay type: toxicity, subcellular; conditions: salmonella enterica subsp. enterica serovar typhimurium, s9, 48 h
[5] = Cytotoxicity against human U-937 cells by MTT assay; assay type: toxicity, cell-based
[6] = Metabolic stability in human liver microsomes assessed as liver blood flow at 1 uM by LC-MS/MS analysis; assay type: ADME, Microsome; conditions: read-out: QH
[7] = biological target: CFTR (Homo sapiens, UniProt P13569); assay: Inhibition of CFTR (unknown origin) at 10 uM relative to control; assay type: toxicity
[8] = Permeability across basal to apical side in human Calu-3 cells at 0.1 to 300 uM measured upto 2 hrs by HPLC-MS/MS analysis; assay type: ADME, cell-based; conditions: dose 0.1-300 µM, read-out: permeability
[9] = biological target: Cytochrome P450 2C19 (Homo sapiens, UniProt P33261); assay: Inhibition of CYP2C19 in human liver microsomes using (S)-mephenytoin as substrate in presence of NADPH by LC-MS/MS analysis; assay type: ADME, Microsome
[10] = MRT in Han Wistar rat; assay type: ADME; conditions: in vivo
[11] = biological target: BK channel (Homo sapiens, UniProt Q12791); assay: Inhibition of BK channel (unknown origin) at 10 uM relative to control; assay type: toxicity
[12] = Drug uptake in Han Wistar rat lung at 8 ug/kg, IT(Intratracheal) measured after 3 hrs by HPLC-TMS analysis; assay type: ADME, tissue-based; conditions: in vivo, inhaled_or_intranasal, 0.008 mg/kg, dose 8 µg/kg
[13] = Lipophilicity, logD of compound at pH 7.4; assay type: physicochemical; conditions: buffer
[14] = Cytotoxicity against rat hepatocytes by LDH assay; assay type: toxicity, cell-based, Hepatocyte
[15] = Genotoxicity in Salmonella typhimurium TA1535 incubated for 48 hrs in presence of rat liver S9 fraction by Ames test; assay type: toxicity, subcellular; conditions: salmonella enterica subsp. enterica serovar typhimurium, s9, 48 h
[16] = biological target: T1, Cytochrome P450 1A2 (Homo sapiens, UniProt P05177); assay: Inhibition of CYP1A2 in human liver microsomes in presence of NADPH by LC-MS/MS analysis; assay type: ADME, Microsome
T1 sequence (P05177 whole entry): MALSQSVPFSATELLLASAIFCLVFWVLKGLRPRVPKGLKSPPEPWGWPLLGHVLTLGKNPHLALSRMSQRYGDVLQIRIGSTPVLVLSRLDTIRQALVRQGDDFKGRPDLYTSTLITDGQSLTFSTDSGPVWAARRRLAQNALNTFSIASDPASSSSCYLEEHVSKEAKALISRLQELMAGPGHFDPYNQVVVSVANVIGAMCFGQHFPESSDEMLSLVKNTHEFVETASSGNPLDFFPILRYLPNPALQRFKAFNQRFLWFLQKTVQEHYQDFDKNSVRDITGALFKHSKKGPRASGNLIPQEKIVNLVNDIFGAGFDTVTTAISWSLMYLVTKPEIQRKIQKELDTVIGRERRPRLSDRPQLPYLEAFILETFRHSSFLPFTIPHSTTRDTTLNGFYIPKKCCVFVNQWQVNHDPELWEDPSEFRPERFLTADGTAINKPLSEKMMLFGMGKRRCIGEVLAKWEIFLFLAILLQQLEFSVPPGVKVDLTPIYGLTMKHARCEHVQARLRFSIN

[17] = biological target: Cytochrome P450 2D6 (Homo sapiens, UniProt P10635); assay: Inhibition of CYP2D6 in human liver microsomes using dextromethorphan as substrate in presence of NADPH by LC-MS/MS analysis; assay type: ADME, Microsome
[18] = Genotoxicity in Salmonella typhimurium TA98 incubated for 48 hrs in presence of rat liver S9 fraction by Ames test; assay type: toxicity, subcellular; conditions: salmonella enterica subsp. enterica serovar typhimurium, s9, 48 h
[19] = biological target: Cytochrome P450 3A4 (Homo sapiens, UniProt P08684); assay: Inhibition of CYP3A4 in human liver microsomes using midazolam as substrate in presence of NADPH by LC-MS/MS analysis; assay type: ADME, Microsome
[20] = biological target: CaV3.2 (Homo sapiens, UniProt O95180); assay: Inhibition of CaV3.2 (unknown origin) at 10 uM relative to control; assay type: toxicity
[21] = Metabolic stability in rat hepatocytes assessed as liver blood flow at 1 uM incubated for 6 hrs by HPLC-MS/MS analysis; assay type: ADME, cell-based, Hepatocyte; conditions: read-out: QH
[22] = Metabolic stability in human hepatocytes assessed as liver blood flow at 1 uM incubated for 6 hrs by HPLC-MS/MS analysis; assay type: ADME, cell-based, Hepatocyte; conditions: read-out: QH
[23] = Permeability of compound by PAMPA assay; assay type: ADME; conditions: read-out: permeability
[24] = Metabolic stability in rat liver microsomes assessed as liver blood flow at 1 uM by LC-MS/MS analysis; assay type: ADME, Microsome; conditions: read-out: QH
[25] = Solubility of compound at pH 5; assay type: physicochemical; conditions: buffer
[26] = Cytotoxicity against human 16HBE14o- cells by plasma damage based analysis; assay type: toxicity, cell-based
[27] = Genotoxicity in Salmonella typhimurium TA100 incubated for 48 hrs in presence of rat liver S9 fraction by Ames test; assay type: toxicity, subcellular; conditions: salmonella enterica subsp. enterica serovar typhimurium, s9, 48 h
[28] = Genotoxicity in Escherichia coli WP2 uvrA (pKM 101) incubated for 48 hrs in presence of rat liver S9 fraction by Ames test; assay type: toxicity, subcellular; conditions: s9, 48 h
[29] = biological target: Cytochrome P450 2C9 (Homo sapiens, UniProt P11712); assay: Inhibition of CYP2C9 in human liver microsomes using diclofenac as substrate in presence of NADPH by LC-MS/MS analysis; assay type: ADME, Microsome
[30] = Permeability across apical to basal side in human Caco-2 cells by LC-MS/MS analysis; assay type: ADME, cell-based; conditions: read-out: permeability
[31] = tested on: Rattus norvegicus; assay: Effect on Han Wistar rat model of lung fluid absorption at ED70 administered intratracheally measured after 20 hrs; assay type: functional; conditions: route it(Intratracheal)
[32] = biological target: Acetylcholinesterase (Homo sapiens) (UniProt P22303); assay: Inhibition of AChE (unknown origin) at 10 uM relative to control
[33] = tested on: Rattus norvegicus; assay: Upregulation of serum aldosterone level in Han Wistar rat model of lung fluid absorption at 3 ug/kg, IT(Intratracheal) measured after 3 hrs relative to control; assay type: functional; conditions: dose 3 µg/kg
[34] = organism: Rattus norvegicus; assay: Upregulation of serum potassium level in Han Wistar rat; assay type: functional, organism-based
[35] = tested on: M1 cell; assay: Inhibition of ENaC-mediated water resorption in mouse M1 cells at 3 uM by radiometric dilution assay relative to control; assay type: cell-based
[36] = tested on: Lung; assay: Inhibition of lung water resorption in Wistar rat at 0.3 ug/kg, IT(Intratracheal) incubated for 3 hrs relative to control; assay type: functional
[37] = Inhibition of ENaC in mouse M1 cells upto 10 uM by chamber assay; assay type: cell-based; conditions: m1 cell
[38] = Drug uptake in Han Wistar rat lung at 10 ug/kg, IT(Intratracheal) measured after 3 hrs by HPLC-TMS analysis; assay type: ADME, tissue-based; conditions: in vivo, inhaled_or_intranasal, 0.01 mg/kg, dose 10 µg/kg
[39] = tested on: Lung; assay: Inhibition of lung water resorption in Wistar rat at 3 ug/kg, IT(Intratracheal) incubated for 3 hrs relative to control; assay type: functional
[40] = tested on: Rattus norvegicus; assay: Acute effect on Han Wistar rat model of lung fluid absorption administered intratracheally measured after 3 hrs; assay type: functional; conditions: route it(Intratracheal)

Sequence of Cytochrome P450 3A4 (P08684 whole entry): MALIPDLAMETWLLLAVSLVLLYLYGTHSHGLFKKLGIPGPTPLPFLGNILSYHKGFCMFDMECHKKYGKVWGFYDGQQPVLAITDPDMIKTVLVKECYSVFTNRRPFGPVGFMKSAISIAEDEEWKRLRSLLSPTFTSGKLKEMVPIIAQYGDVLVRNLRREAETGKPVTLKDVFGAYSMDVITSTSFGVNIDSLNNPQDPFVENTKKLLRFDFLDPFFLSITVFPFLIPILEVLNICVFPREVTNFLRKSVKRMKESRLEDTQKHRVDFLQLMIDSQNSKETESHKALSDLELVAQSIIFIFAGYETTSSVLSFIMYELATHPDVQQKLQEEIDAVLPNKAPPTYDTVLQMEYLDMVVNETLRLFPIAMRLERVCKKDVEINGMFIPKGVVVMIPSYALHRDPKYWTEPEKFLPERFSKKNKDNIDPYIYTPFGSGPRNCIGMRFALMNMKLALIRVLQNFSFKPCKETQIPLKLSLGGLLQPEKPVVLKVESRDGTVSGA
Sequence of Cytochrome P450 2C19 (P33261 whole entry): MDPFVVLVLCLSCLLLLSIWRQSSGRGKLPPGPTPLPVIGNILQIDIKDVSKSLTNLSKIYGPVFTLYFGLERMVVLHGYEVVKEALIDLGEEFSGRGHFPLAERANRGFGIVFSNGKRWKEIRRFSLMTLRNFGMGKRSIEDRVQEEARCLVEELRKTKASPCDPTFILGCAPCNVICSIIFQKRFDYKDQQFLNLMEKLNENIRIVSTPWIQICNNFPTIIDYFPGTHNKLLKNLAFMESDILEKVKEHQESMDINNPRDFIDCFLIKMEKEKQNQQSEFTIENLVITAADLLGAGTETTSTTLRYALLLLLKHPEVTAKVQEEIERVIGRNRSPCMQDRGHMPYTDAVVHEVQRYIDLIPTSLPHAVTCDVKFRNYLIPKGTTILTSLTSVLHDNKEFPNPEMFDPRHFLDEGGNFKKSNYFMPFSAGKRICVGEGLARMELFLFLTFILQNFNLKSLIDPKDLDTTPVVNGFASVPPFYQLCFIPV
Sequence of Cytochrome P450 2C9 (P11712 whole entry): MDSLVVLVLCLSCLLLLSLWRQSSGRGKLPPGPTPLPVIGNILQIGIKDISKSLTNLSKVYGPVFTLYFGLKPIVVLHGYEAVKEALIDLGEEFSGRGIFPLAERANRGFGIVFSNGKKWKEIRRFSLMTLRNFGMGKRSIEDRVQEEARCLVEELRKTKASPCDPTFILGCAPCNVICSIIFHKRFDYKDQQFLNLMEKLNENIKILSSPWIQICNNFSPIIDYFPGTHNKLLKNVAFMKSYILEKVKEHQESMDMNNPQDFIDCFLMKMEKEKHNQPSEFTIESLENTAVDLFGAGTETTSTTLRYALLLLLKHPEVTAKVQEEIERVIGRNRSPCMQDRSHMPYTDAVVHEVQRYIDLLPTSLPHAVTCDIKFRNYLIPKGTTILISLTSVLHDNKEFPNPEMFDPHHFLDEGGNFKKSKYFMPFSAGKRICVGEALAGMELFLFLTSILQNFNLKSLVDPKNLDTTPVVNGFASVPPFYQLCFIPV
Sequence of Cytochrome P450 2D6 (P10635 whole entry): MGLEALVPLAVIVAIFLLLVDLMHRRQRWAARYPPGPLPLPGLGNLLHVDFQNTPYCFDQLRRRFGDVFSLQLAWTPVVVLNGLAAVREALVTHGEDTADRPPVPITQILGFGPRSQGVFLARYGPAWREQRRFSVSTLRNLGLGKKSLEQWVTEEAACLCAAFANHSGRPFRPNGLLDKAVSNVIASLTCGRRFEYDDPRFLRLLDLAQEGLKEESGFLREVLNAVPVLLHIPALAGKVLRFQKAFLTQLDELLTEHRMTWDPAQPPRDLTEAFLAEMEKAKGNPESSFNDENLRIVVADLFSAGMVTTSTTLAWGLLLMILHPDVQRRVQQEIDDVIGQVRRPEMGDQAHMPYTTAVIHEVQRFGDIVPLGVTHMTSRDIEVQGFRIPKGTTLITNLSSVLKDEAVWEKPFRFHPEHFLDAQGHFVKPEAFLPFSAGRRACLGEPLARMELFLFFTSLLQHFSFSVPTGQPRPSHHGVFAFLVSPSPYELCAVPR
Sequence of Acetylcholinesterase (Homo sapiens) (P22303 whole entry): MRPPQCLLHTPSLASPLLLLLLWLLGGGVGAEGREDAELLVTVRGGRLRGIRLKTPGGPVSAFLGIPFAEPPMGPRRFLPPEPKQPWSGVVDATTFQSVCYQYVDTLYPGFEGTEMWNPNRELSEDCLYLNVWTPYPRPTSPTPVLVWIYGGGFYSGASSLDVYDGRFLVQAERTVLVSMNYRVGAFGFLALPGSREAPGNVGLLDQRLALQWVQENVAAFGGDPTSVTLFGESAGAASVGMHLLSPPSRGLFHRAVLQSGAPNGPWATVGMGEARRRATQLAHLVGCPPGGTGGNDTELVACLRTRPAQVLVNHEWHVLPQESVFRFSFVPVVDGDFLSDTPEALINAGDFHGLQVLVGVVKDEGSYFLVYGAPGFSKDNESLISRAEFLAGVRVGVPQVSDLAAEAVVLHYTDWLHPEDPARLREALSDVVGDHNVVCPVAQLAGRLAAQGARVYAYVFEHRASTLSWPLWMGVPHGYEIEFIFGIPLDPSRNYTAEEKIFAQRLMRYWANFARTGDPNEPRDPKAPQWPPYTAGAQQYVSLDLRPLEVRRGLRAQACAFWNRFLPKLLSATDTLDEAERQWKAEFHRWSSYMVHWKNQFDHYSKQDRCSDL
Sequence of CFTR (P13569 whole entry): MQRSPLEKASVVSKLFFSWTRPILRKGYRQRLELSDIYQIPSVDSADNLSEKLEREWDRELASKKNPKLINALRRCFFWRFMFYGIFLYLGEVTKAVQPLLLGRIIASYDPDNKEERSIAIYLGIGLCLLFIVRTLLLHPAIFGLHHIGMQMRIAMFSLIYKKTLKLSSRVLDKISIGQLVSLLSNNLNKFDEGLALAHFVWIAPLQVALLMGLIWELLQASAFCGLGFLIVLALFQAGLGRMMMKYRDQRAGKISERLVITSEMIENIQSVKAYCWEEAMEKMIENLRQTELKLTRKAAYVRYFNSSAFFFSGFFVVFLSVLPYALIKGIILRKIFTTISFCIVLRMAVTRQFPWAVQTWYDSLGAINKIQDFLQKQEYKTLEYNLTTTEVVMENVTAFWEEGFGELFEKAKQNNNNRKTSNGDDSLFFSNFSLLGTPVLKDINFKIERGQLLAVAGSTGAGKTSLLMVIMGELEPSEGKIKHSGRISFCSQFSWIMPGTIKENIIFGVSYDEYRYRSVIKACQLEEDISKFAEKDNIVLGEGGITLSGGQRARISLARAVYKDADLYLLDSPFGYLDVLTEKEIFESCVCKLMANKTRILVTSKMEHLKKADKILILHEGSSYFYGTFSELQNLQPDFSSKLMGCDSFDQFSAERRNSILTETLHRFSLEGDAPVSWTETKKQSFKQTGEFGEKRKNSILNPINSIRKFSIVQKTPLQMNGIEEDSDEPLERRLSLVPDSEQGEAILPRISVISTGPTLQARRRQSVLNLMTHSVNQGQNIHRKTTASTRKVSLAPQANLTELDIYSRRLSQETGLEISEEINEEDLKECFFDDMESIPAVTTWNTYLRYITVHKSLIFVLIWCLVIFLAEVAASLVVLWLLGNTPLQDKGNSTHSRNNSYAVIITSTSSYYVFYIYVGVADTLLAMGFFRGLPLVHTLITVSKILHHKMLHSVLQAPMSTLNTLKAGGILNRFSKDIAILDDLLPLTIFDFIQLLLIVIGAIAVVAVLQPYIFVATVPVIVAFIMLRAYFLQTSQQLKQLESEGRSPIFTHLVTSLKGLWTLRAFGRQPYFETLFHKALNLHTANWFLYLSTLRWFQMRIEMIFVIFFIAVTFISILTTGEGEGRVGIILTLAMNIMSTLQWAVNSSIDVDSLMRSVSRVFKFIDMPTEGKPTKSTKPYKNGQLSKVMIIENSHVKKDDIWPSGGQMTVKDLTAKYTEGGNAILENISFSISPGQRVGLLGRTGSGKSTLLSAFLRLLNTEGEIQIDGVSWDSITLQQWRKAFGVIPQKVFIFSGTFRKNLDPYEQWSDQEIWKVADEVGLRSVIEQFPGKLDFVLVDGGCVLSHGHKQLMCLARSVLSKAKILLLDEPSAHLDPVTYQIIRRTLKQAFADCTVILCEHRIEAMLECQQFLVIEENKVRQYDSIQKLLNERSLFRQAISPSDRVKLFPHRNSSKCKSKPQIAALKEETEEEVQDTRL

## CCn1c(CNC(=O)c2nc(Cl)cnc2N)[n+](CC)c2ccc(OCC(=O)NCCOCP(C)(C)=O)cc21
[1]
  inhibition at 10 µM: < 50%
[2]
  bioavailability: < 5%
[3]
  QH: 79%
[4]
  Activity: Non-Toxic
[5]
  IC50: > 800 µM
[6]
  hepatic extraction ratio at 1 µM: < 0.23
[7]
  inhibition at 10 µM: < 50%
[8]
  Papp B→A at 2 h, up to 300 µM: 0.37 ×10⁻⁶ cm/s
[9]
  IC50: > 50 µM
[10]
  MRT: 18 min
[11]
  inhibition at 10 µM: < 50%
[12]
  Drug uptake: 26%
[13]
  logD: 0.1
[14]
  IC50: > 800 µM
[15]
  Activity: Non-Toxic
[16]
  IC50: > 50 µM
[17]
  IC50: > 50 µM
[18]
  Activity: Non-Toxic
[19]
  IC50: > 50 µM
[20]
  inhibition at 10 µM: < 50%
[21]
  hepatic extraction ratio at 6 h, 1 µM: 0.28
[22]
  hepatic extraction ratio at 6 h, 1 µM: 0.17
[23]
  Papp: < 0.05 ×10⁻⁶ cm/s
[24]
  hepatic extraction ratio at 1 µM: < 0.23
[25]
  solubility: > 5%
[26]
  IC50: > 800 µM
[27]
  Activity: Non-Toxic
[28]
  Activity: Non-Toxic
[29]
  IC50: > 50 µM
[30]
  Papp A→B: 0.6 ×10⁻⁶ cm/s

## CCn1c(CNC(=O)c2nc(Cl)cnc2N)[n+](CC)c2ccc(C(=O)N(C)CCN(C)C)cc21
[3]
  QH: 84%
[31]
  Efficacy: 39%
[4]
  Activity: Non-Toxic
[5]
  IC50: > 800 µM
[6]
  hepatic extraction ratio at 1 µM: < 0.23
[32]
  inhibition: 44%
[8]
  Papp B→A at 2 h, up to 300 µM: < 0.21 ×10⁻⁶ cm/s
[33]
  Activity: <25%
[34]
  Activity: inactive
[9]
  IC50: > 50 µM
[35]
  inhibition: 81%
[10]
  MRT: 18 min
[36]
  inhibition in vivo at 0.0003 mg/kg: 27%
[13]
  logD: 0.2
[14]
  IC50: > 800 µM
[37]
  IC50: 0.0062 µM
[15]
  Activity: Non-Toxic
[38]
  Drug uptake: 55%
[16]
  IC50: > 50 µM
[17]
  IC50: > 50 µM
[39]
  inhibition in vivo at 0.003 mg/kg: 33%
[18]
  Activity: Non-Toxic
[19]
  IC50: > 50 µM
[40]
  ED50: 0.1 µg/kg
  ED70: 0.13 µg/kg
[21]
  hepatic extraction ratio at 6 h, 1 µM: 0.2
[22]
  hepatic extraction ratio at 6 h, 1 µM: 0.2
[23]
  Papp: < 0.02 ×10⁻⁶ cm/s
[24]
  hepatic extraction ratio at 1 µM: < 0.23
[25]
  solubility: > 2%
[26]
  IC50: > 800 µM
[27]
  Activity: Non-Toxic
[28]
  Activity: Non-Toxic
[29]
  IC50: > 50 µM
[30]
  Papp A→B: < 0.2 ×10⁻⁶ cm/s
